Assay results published in patent US10787430B2, “Hemoglobin modifier compounds and uses thereof” (FronThera U.S. Pharmaceuticals LLC, priority 2016, dated 2020).

Target: T1, hemoglobin (20% hct blood) (Homo sapiens, UniProt P68871+P69905)
T1 construct: Normal whole blood was collected from adult healthy donors; from tissue; host or cells: normal human whole blood (red blood cells), adult healthy donors
Assay: Dose-dependent whole blood OEC studies
Format: cell-based
Details: 37° C., 1 hr; for delta p50 0.2 mM: 0.2 mM compound; for delta p50 0.5 mM: 0.5 mM compound
Method: Materials: Normal whole blood was collected from adult healthy donors at the Virginia Commonwealth University after informed consent. The use of these human samples is in accordance with regulations of the IRB for Protection of Human Subjects. Compounds (50 mM-100 mM concentration in DMSO) were stored at 15° C. or room temperature until use.
To 2 ml 20% hct blood, 0.2 or 0.5 or 1 mM compound was added and kept shaking at 37° C. for 1 hr. OEC analysis was performed as described above to determine partial pressure of oxygen (pO2) and Hb oxygen saturation values (sO2). A control without compound but containing equivalent amount of DMSO was performed (1%). GBT440 was used as a positive control. Table 2 below lists the delta p50% values.

T1 sequence (P69905 2-142 limits assumed): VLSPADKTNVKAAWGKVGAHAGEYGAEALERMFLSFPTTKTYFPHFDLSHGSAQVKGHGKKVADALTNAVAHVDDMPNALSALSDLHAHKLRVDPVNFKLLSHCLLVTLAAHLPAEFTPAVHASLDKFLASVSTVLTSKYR
T1 sequence (P68871 2-147 limits assumed): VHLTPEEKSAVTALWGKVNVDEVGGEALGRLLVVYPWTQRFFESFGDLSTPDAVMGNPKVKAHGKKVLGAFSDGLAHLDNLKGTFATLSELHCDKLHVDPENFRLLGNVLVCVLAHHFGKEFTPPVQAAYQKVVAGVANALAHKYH

delta p50 0.2 mM	delta p50 0.5 mM	SMILES
−6.50%	−10.00%	[2H]C([2H])([2H])C(n1ncc(F)c1-c1ncncc1COc1cc(F)cc(O)c1C=O)C([2H])([2H])[2H] [Example 34, 4-fluoro-2-((4-(4-fluoro-1-(propan-2-yl-1,1,1,3,3,3-d6)-1H-pyrazol-5-yl)pyrimidin-5-yl)methoxy)-6-hydroxybenzaldehyde]
−10.30%	−29.80%	[2H]C([2H])([2H])C(n1ncc(F)c1-c1ncncc1COc1cccc(O)c1C=O)C([2H])([2H])[2H] [Example 35, 2-((4-(4-fluoro-1-(propan-2-yl-1,1,1,3,3,3-d6)-1H-pyrazol-5-yl)pyrimidin-5-yl)methoxy)-6-hydroxybenzaldehyde]
−9.30%	−14%	[2H]C([2H])([2H])C(n1nccc1-c1ncncc1COc1cc(F)cc(O)c1C=O)C([2H])([2H])[2H] [Example 36, 4-fluoro-2-hydroxy-6-((4-(1-(propan-2-yl-1,1,1,3,3,3-d6)-1H-pyrazol-5-yl)pyrimidin-5-yl)methoxy)benzaldehyde]
−16.20%	−46.10%	[2H]C([2H])([2H])C(n1nccc1-c1ncncc1COc1cccc(O)c1C=O)C([2H])([2H])[2H] [Example 37, 2-hydroxy-6-((4-(1-(propan-2-yl-1,1,1,3,3,3-d6)-1H-pyrazol-5-yl)pyrimidin-5-yl)methoxy)benzaldehyde]
−12.20%	−29.30%	[2H]C([2H])(Oc1cc(F)cc(O)c1C=O)c1cncnc1-c1ccnn1C(C)C [Example 39, 4-fluoro-2-hydroxy-6-((4-(1-isopropyl-1H-pyrazol-5-yl)pyrimidin-5-yl)methoxy-d2)benzaldehyde]
−6%	−12%	[2H]C([2H])(Oc1ccc(F)c(O)c1C=O)c1cncnc1-c1ccnn1C(C)C [Example 40, 3-fluoro-2-hydroxy-6-((4-(1-isopropyl-1H-pyrazol-5-yl)pyrimidin-5-yl)methoxy-d2)benzaldehyde]
−14.40%	−30.20%	[2H]C([2H])(Oc1cccc(O)c1C=O)c1cncnc1-c1c(F)cnn1C(C)C [Example 41, 2-((4-(4-fluoro-1-isopropyl-1H-pyrazol-5-yl)pyrimidin-5-yl)methoxy-d2)-6-hydroxybenzaldehyde]
−10.20%	−23.10%	[2H]C([2H])(Oc1cccc(O)c1C=O)c1cncnc1-n1ccnc1C(C)C [Example 42, 2-hydroxy-6-((4-(2-isopropyl-1H-imidazol-1-yl)pyrimidin-5-yl)methoxy-d2)benzaldehyde]
−6.90%	−22.10%	[2H]C([2H])(Oc1cc(F)cc(O)c1C=O)c1cncnc1-n1ccnc1C(C)C [Example 44, 4-fluoro-2-hydroxy-6-((4-(2-isopropyl-1H-imidazol-1-yl)pyrimidin-5-yl)methoxy-d2)benzaldehyde]
−10%	−29.80%	[2H]C([2H])(Oc1cccc(O)c1C=O)c1cccnc1-n1ccnc1C1CC1 [Example 45, 2-((2-(2-cyclopropyl-1H-imidazol-1-yl)pyridin-3-yl)methoxy-d2)-6-hydroxybenzaldehyde]
−12.80%	−37.90%	[2H]C([2H])(Oc1cccc(O)c1C=O)c1ncccc1-c1ccnn1C(C)C [Example 46, 2-hydroxy-6-((3-(1-isopropyl-1H-pyrazol-5-yl)pyridin-2-yl)methoxy-d2)benzaldehyde]
−15.30%	−40.80%	[2H]C([2H])(Oc1cc(F)cc(O)c1C=O)c1ncccc1-c1ccnn1C(C)C [Example 47, 4-fluoro-2-hydroxy-6-((3-(1-isopropyl-1H-pyrazol-5-yl)pyridin-2-yl)methoxy-d2)benzaldehyde]
−20.50%	−37.80%	CC(C)n1nccc1-c1ncncc1COc1ccc2ncsc2c1C=O [Example 53, 6-((4-(1-isopropyl-1H-pyrazol-5-yl)pyrimidin-5-yl)methoxy)benzo[d]thiazole-7-carbaldehyde]
−12.00%	−35.00%	CC(C)n1nccc1-c1ncncc1COc1ccc2ncoc2c1C=O [Example 54, 6-((4-(1-isopropyl-1H-pyrazol-5-yl)pyrimidin-5-yl)methoxy)benzo[d]oxazole-7-carbaldehyde]
−5.30%	−8.80%	CC(C)n1nccc1-c1ncncc1COc1ccc2cccnc2c1C=O [Example 55, 7-((4-(1-isopropyl-1H-pyrazol-5-yl)pyrimidin-5-yl)methoxy)quinoline-8-carbaldehyde]
−1.60%	−11.30%	CC(C)n1nccc1-c1ncncc1COc1ccc2cccnc2c1C=O [Example 56, 7-((4-(1-isopropyl-1H-pyrazol-5-yl)pyrimidin-5-yl)methoxy)quinoline-8-carbaldehyde]
−4.90%	−7.60%	CC(C)n1ncc(F)c1-c1ncncc1COc1cccc(O)c1C=O [Example 57, 2-((4-(4-fluoro-1-isopropyl-1H-pyrazol-5-yl)pyrimidin-5-yl)methoxy)-6-hydroxybenzaldehyde]
−14.30%	−34.30%	CC(C)n1nccc1-c1cccnc1COc1ccc2ncoc2c1C=O [Example 58, 6-((3-(1-isopropyl-1H-pyrazol-5-yl)pyridin-2-yl)methoxy)benzo[d]oxazole-7-carbaldehyde]
−7.00%	−15.20%	CC(C)n1nccc1-c1c(COc2cccc(O)c2C=O)ncn1C [Example 63, 2-hydroxy-6-((5-(1-isopropyl-1H-pyrazol-5-yl)-1-methyl-1H-imidazol-4-yl)methoxy)benzaldehyde]
−10.00%	−31.00%	CC(C)n1nccc1-c1scnc1COc1cccc(O)c1C=O [Example 64, 2-hydroxy-6-((5-(1-isopropyl-1H-pyrazol-5-yl)thiazol-4-yl)methoxy)benzaldehyde]

SMILES	delta p50 0.2 mM	delta p50 0.5 mM
[2H]C([2H])(Oc1ccc2ncoc2c1C=O)c1cncnc1-n1ccnc1C(C)C [Example 43, 6-((4-(2-isopropyl-1H-imidazol-1-yl)pyrimidin-5-yl)methoxy-d2)benzo[d]oxazole-7-carbaldehyde]	−9.90%	−28.10%
[2H]C(C)(C)n1nccc1-c1ncccc1COc1cccc(O)c1C=O [Example 48, 2-hydroxy-6-((2-(1-(propan-2-yl-2-d)-1H-pyrazol-5-yl)pyridin-3-yl)methoxy)benzaldehyde]	−11%	−38.10%
[2H]C(C)(C)n1nccc1-c1ncncc1COc1cccc(O)c1C=O [Example 50, 2-hydroxy-6-((4-(1-(propan-2-yl-2-d)-1H-pyrazol-5-yl)pyrimidin-5-yl)methoxy)benzaldehyde]	−16.10%	−38.4.%
[2H]C(C)(C)n1nccc1-c1nccnc1COc1cccc(O)c1C=O [Example 51, 2-hydroxy-6-((3-(1-(propan-2-yl-2-d)-1H-pyrazol-5-yl)pyrazin-2-yl)methoxy)benzaldehyde]	−13.10%	−36.40%
